Assay results published in ChEMBL document CHEMBL5634084, “Design and optimization of selective and potent CDK9 inhibitors with flavonoid scaffold for the treatment of acute myeloid leukemia” (Eur J Med Chem, 2023).

Tests used:
MV4-11 [1] = assay: Induction of apoptosis in human MV4-11 cells assessed as viable cells at 0.1 uM incubated for 24 hrs by AnnexinV-FITC/PI staining based flow cytometry (reference value: 93.4%); type: functional; conditions: read-out: Activity
MV4-11 [2] = assay: Induction of cell cycle arrest in human MV4-11 cells assessed as accumulation of cells at G2/M phase at 0.4 uM incubated fo 36 hrs by propidium iodide staining based flow cytometry (reference value: 9.5%); type: functional
[3] = target: Cyclin-dependent kinase 7 (Homo sapiens) (UniProt P50613); assay: Inhibition of wild type full length human CDK7 (1 to 344 esidues) expessed in mammalian expression system at 1 uM by KINOMEscan analysis
Chain of Cyclin-dependent kinase 7 (Homo sapiens) (P50613 whole entry): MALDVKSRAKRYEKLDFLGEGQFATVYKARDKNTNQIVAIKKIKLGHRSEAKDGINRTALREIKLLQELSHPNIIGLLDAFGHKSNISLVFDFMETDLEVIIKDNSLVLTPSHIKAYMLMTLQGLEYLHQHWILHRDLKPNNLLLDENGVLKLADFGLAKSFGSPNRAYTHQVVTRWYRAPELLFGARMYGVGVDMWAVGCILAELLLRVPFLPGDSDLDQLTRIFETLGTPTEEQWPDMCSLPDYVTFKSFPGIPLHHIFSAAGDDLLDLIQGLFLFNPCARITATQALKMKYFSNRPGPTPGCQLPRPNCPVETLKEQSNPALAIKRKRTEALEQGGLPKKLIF

MV4-11 [4] = assay: Induction of apoptosis in human MV4-11 cells assessed as early apoptotic cells at 2 uM incubated for 24 hrs by AnnexinV-FITC/PI staining based flow cytometry (reference value: 1.42%); type: functional
MV4-11 [5] = assay: Induction of cell cycle arrest in human MV4-11 cells assessed as accumulation of cells at G0/G1 phase at 0.1 uM incubated fo 36 hrs by propidium iodide staining based flow cytometry (reference value: 64%); type: functional
[6] = Cytotoxicity against human HEK293 cells assessed as reduction in cell viability measured after 72 hrs; type: toxicity, cell-based
CDK6/cyclin D1 = CDK6/cyclin D1 (Homo sapiens, UniProt Q00534); assay: Inhibition of CDK6/CyclinD1 (unknown origin) by ADP-Glo assay; type: protein-complex assay
Chain of CDK6/cyclin D1 (P24385 whole entry): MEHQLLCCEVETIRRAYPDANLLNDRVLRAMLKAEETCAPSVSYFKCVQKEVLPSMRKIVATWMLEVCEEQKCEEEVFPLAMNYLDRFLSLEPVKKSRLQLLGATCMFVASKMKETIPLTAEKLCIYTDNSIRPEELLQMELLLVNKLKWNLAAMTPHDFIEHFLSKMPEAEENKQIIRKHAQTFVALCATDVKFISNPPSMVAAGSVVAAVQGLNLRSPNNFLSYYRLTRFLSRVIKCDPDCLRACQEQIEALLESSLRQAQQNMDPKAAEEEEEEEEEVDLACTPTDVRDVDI
Chain of CDK6/cyclin D1 (Q00534 whole entry): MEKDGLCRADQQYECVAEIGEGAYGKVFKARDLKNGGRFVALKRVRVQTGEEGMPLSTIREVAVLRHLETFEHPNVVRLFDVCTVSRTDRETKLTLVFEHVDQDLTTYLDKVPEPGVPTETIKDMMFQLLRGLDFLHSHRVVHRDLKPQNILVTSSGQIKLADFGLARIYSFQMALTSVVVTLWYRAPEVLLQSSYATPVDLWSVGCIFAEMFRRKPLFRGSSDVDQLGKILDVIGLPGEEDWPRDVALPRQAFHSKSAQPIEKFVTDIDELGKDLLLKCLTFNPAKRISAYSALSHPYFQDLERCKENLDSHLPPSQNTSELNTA

[7] = target: Cyclin-dependent kinase 9 (Homo sapiens) (UniProt P50750); assay: Inhibition of CDK9 in human MV4-11 cells assessed as reduction in Mcl-1 protein expression incubated for 12 hrs by western blot analysis; type: cell-based; conditions: dose 0.1-4 µM
Chain of Cyclin-dependent kinase 9 (Homo sapiens) (P50750 whole entry): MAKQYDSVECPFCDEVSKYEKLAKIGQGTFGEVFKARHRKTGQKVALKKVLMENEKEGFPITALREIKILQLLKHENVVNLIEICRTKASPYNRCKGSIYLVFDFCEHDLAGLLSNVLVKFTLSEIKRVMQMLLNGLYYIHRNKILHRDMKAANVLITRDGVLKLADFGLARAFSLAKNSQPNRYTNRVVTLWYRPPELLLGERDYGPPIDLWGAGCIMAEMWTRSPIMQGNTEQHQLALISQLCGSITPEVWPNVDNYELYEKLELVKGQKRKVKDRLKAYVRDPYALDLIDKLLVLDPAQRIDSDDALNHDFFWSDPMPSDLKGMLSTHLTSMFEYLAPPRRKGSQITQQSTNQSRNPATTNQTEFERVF

MV4-11 [8] = assay: Induction of apoptosis in human MV4-11 cells assessed as necrotic cells at 0.1 uM incubated for 24 hrs by AnnexinV-FITC/PI staining based flow cytometry (reference value: 0%); type: functional
MV4-11 [9] = assay: Induction of cell cycle arrest in human MV4-11 cells assessed as accumulation of cells at S phase at 0.8 uM incubated fo 36 hrs by propidium iodide staining based flow cytometry (reference value: 26.5%); type: functional

For COc1cc(O)c2c(=O)cc(-c3ccc(N4CCN(C)CC4)cc3)oc2c1C1=CCN(C)CC1, the viability at 0.1 µM (MV4-11 [1]) was 91.5%, the Activity (MV4-11 [2]) was 6% and the inhibition [3] was 4.8%. The Activity (MV4-11 [4]) was 67%, the Activity (MV4-11 [5]) was 70.5% and the IC50 at 72 h [6] was 10.7 µM. The IC50 (CDK6/cyclin D1) was 0.589 µM, the inhibition [7] was “Dose-Dependent Effect” and the Activity (MV4-11 [8]) was 0.02%. It also gave an Activity (MV4-11 [9]) of 10.8%.
